The text below walks through data of EP0876142B1, “TOPICAL DELIVERY OF DRUGS TO THE LOWER GASTROINTESTINAL TRACT” (Advanced Polymer Systems, Inc., priority 1996, dated 1997).

SMILES strings stand for the structures.

This series is described as follows: In vitro release of hydrocortisone (modified USP dissolution apparatus). The class given is physicochemical. The note with it: after the first two hours. The method, then: The radioactively labelled hydrocortisone was entrapped in two steps using a 5% ethanolic solution at each step. Release of entrapped hydrocortisone at pH 7.5 was measured using a modified USP dissolution apparatus with a basket of 5 µm mesh and a stirring speed of 150 rpm. Sixty percent of the entrapped hydrocortisone was released in the first two hours with a further 15% released over the next six hours. The dissolution rate of free radioactively labelled hydrocortisone was also measured.

In the case of `C[C@]12CCC(=O)C=C1CC[C@@H]1[C@@H]2[C@@H](O)C[C@@]2(C)[C@H]1CC[C@]2(O)C(=O)CO` [free hydrocortisone, hydrocortisone], the total dissolution entry is given as “total dissolution occurred in another six hours”.
